≈ marks a conversion by molar mass, not a printed value.

The values that follow come from ChEMBL document CHEMBL5241120, “Insights into the medicinal chemistry of heterocycles integrated with a pyrazolo[1,5-a]pyrimidine scaffold” (RSC Med Chem, 2022).

For series [1], the system named is Escherichia coli. Nature of the series: Antibacterial activity against Escherichia coli assessed as zone of inhibition. The series is classed as functional.
For series [2], the system named is Bacillus subtilis. Nature of the series: Antibacterial activity against Bacillus subtilis assessed as zone of inhibition. The series is classed as functional.
The next series has as its system Aspergillus clavatus. Briefly: Antifungal activity against Aspergillus clavatus assessed as zone of inhibition. The series is classed as functional.
The next series relates to Candida tropicalis. Nature of the series: Antifungal activity against Candida tropicalis assessed as zone of inhibition. The series is classed as functional.
Series [3] deals with Mus musculus. Nature of the series: Antiinflammatory activity in mouse assessed as inhibition of paw edema after 4 hrs. Also noted: scale not given: the % may be the effect or the level left. The series is classed as functional.
The subject of series [4] is Mus musculus. Nature of the series: Anxiolytic activity in mouse assessed as time spent in light at 1 mg/kg, po. The series is classed as functional.
For series [5], the system named is Mus musculus. Briefly: Anxiolytic activity in mouse assessed as transfer number at 1 mg/kg, po. The series is classed as functional.
A further series relates to Enterococcus faecalis. Briefly: Antibacterial activity against Enterococcus faecalis assessed as zone of inhibition at 5 mg/ml. The note with it: read-out: IZ. The series is classed as functional.
A further series concerns Proteus vulgaris. Briefly: Antibacterial activity against Proteus vulgaris assessed as zone of inhibition at 5 mg/ml. The series is classed as functional. The note with it: read-out: IZ.
The subject of another series is Streptococcus mutans. Briefly: Antibacterial activity against Streptococcus mutans assessed as zone of inhibition at 5 mg/ml. The series is classed as functional. Particulars: read-out: IZ.
The test system of another series is Staphylococcus aureus. Briefly: Antibacterial activity against Staphylococcus aureus assessed as zone of inhibition at 5 mg/ml. The note with it: read-out: IZ. The series is classed as functional.
The subject of series [6] is Bacillus subtilis. Briefly: Antibacterial activity against Bacillus subtilis assessed as zone of inhibition at 5 mg/ml. The series is classed as functional. Particulars: read-out: IZ.
The test system of series [7] is Escherichia coli. Nature of the series: Antibacterial activity against Escherichia coli assessed as zone of inhibition at 5 mg/ml. The series is classed as functional. The note with it: read-out: IZ.
The next series deals with Fusarium graminearum. Nature of the series: Antifungal activity against Gibberrella-zeave assessed as inhibition of fungal growth at 50 ug/ml. The series is classed as functional. Also noted: scale not given: the % may be the effect or the level left. Particulars: dose 50 µg/ml.
The subject of another series is Alternaria solani. Briefly: Antifungal activity against Alternaria solani assessed as inhibition of fungal growth at 50 ug/ml. The note with it: dose 50 µg/ml. The arrangement: scale not given: the % may be the effect or the level left. The series is classed as functional.
The test system of the next series is Phomopsis asparagi. Nature of the series: Antifungal activity against Phoma asparagi assessed as inhibition of fungal growth at 50 ug/ml. The series is classed as functional. The arrangement: scale not given: the % may be the effect or the level left. The note with it: dose 50 µg/ml.
A further series relates to Mycosphaerella arachidis. Nature of the series: Antifungal activity against Cercospora arachidicola assessed as inhibition of fungal growth at 50 ug/ml. The series is classed as functional. Also noted: scale not given: the % may be the effect or the level left. Particulars: dose 50 µg/ml.
Series [8] has as its system Brassica rapa subsp. oleifera. Nature of the series: Antifungal activity against Brassica campestris assessed as inhibition of fungal growth at 100 ug/ml by cup plate diffusion method. The series is classed as functional. The arrangement: scale not given: the % may be the effect or the level left. Particulars: dose 100 µg/ml.
In series [9] the test system is Brassica rapa subsp. oleifera. Nature of the series: Antifungal activity against Brassica campestris assessed as inhibition of fungal growth at 10 ug/ml by cup plate diffusion method. The arrangement: scale not given: the % may be the effect or the level left. The series is classed as functional. The note with it: dose 10 µg/ml.
The test system of a further series is HCT-116. Briefly: Cytotoxicity against human HCT-116 cells. The series is classed as functional.
The target in series [10] is T1, liver carboxylesterase (CES) (Sus scrofa, UniProt Q29550).
T1 sequence (Q29550 whole entry): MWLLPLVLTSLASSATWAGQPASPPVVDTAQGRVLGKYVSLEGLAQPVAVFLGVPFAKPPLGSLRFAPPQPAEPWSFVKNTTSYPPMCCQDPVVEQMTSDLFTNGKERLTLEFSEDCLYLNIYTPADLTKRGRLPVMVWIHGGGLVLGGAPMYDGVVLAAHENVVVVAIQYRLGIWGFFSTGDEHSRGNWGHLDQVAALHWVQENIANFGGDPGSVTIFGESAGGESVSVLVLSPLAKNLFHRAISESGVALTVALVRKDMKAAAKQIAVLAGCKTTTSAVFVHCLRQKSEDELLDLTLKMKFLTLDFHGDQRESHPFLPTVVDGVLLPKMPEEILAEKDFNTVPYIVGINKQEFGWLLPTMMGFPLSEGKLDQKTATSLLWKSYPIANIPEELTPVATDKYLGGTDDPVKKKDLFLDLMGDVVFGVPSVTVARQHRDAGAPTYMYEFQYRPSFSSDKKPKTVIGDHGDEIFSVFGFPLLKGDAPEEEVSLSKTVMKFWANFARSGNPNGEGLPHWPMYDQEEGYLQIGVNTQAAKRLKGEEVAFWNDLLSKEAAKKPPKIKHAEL
Briefly: Inhibition of pig liver CES at 20 uM relative to control. The series is classed as tissue-based.

Series [11] in a line: Antioxidant activity assessed as ABTS radical scavenging activity. The series is classed as functional.
Series [12] deals with Rattus norvegicus. Nature of the series: Analgesic activity in Sprague-Dawley rat at 15 mg/kg after 1 hr by hot plate test. The series is classed as functional.
In series [13] the test system is Rattus norvegicus. Nature of the series: Analgesic activity in Sprague-Dawley rat at 15 mg/kg after 2 hrs by hot plate test. The series is classed as functional.
A further series has as its system HEK293. Briefly: Cytotoxicity against HEK293 cells. The series is classed as functional, Homo sapiens.
In another series the test system is Aspergillus fumigatus. Briefly: Antifungal activity against Aspergillus fumigatus. The series is classed as functional.

Consider `Cc1nc2c(c(C)nc3c(C#N)cnn32)c2c1CCO2`, for which the “inhibition zone (IZ)” value turned out to be 16.4 mm in the series with Escherichia coli [1], 14.1 mm with Bacillus subtilis [2] and 17.7 mm in the series on Aspergillus clavatus.
For `Cc1cc(NN2C(=O)c3ccccc3C2=O)n2ncc(C#N)c2n1`, in the series on Candida tropicalis, the “inhibition zone (IZ)” value is 17.4 mm.
With `CC(C)Cc1ccc(C(C)C(=O)O)cc1` (stereo unspecified) [IBUPROFEN], in the series with Mus musculus [3], the Activity stood at 66.67%.
As for `CN1C(=O)CN=C(c2ccccc2)c2cc(Cl)ccc21` [DIAZEPAM], the Activity in the series on Mus musculus [4] amounted to 171.6%; with Mus musculus [5], 171.6.
Turning to `Cc1cc(C)nc(NS(=O)(=O)c2ccc(/N=N/c3c(N)nc4c(/N=N/c5ccc(F)cc5)c(N)nn4c3N)cc2)n1`, the zone of inhibition at 5000 µg/mL with Enterococcus faecalis, with Proteus vulgaris, in the series on Streptococcus mutans, in the series on Staphylococcus aureus, with Bacillus subtilis [6] and in the series with Escherichia coli [7] was 9 mm throughout.
`Cc1ccn2ncc(C#N)c2n1`: the Activity in the series on Fusarium graminearum stood at 36.4%; in the series on Alternaria solani, 45.1%; in the series with Phomopsis asparagi, 28.7%; in the series with Mycosphaerella arachidis it was 39.6%; in series [8] it was 65.8%; in series [9] it was 40.3%.
For `COc1ccc(-c2ccnc3cc(-c4ccc(Cl)cc4)nn23)cc1`, the Activity in the series with HCT-116 was 37%.
The compound `CC1=Nc2cc(-c3ccccc3)nn2C(=O)/C1=N\Nc1ccc(C)cc1` came in with an inhibition at 20 µM in series [10] of 22.8%. The Activity in series [11] came to 0.21 µM; with Rattus norvegicus [12], 43.9%; in the series with Rattus norvegicus [13] it was 65.9%.
With `Clc1ccc(-c2cc3nccc(-c4ccc(Cl)cc4)n3n2)cc1`, the Activity with HEK293 is reported as 44.2%.
Compound `COc1ccc(Nc2nn3c(N)c(C#N)c(-c4ccccc4)nc3c2C(N)=O)cc1` gave a minimum inhibitory concentration (MIC) against Aspergillus fumigatus of 15.6 µg/mL (≈ 39.1 µM).
